Read-outs that look alike come from different tables or passages of the source.

The test system of series [1] is RSV (Respiratory Syncytial Virus strain A2). Kind of series: RSV cytopathic effects (CPE) assay. It is filed as cell-based. The conditions noted are these: human respiratory syncytial virus, 96 h; RSV A2, MOI 0.01, HEp-2 cells, day 4, crystal violet; average of duplicate wells; read-out: EC50. The protocol: The activity of anti-RSV compounds and conjugates was determined using an in vitro cell-based assay following a standard protocol in the field. Briefly, ten four-fold serial dilutions of each test article (TA) starting at 10 μM were prepared in duplicate and incubated with RSV (Respiratory Syncytial Virus strain A2) at a multiplicity of infection (MOI) of 0.01, for one hour. The RSV-TA mix was then added to HEp-2 cells seeded in 96-well plates and incubated for one hour.
Background: Protection from cytopathic effect is a common read-out in antiviral testing.

Series [2] is described as follows: Inherent cytotoxicity run in parallel with the CPE assay (CellTiter-Glo). The following applies: human, HEp-2 cells, 4 days post treatment. The format is cell-based. How it is done: (§1) In parallel with the CPE assay, the inherent cytotoxicity of several test articles was also determined. Briefly, ten four-fold serial dilutions of each TA starting at 10 μM were prepared in triplicate for inoculation with HEp-2 cells in 96-well culture plates. The cell viability was determined four days post treatment using CellTiter-Glo kit.
A general note: ATP-based viability assays read luminescence as a measure of living cells.

Series [3] concerns RSV Long strain. Kind of series: RSV microneutralization assay, RSV Long strain. The conditions noted are these: MOI 0.002, HEp-2 cells, day 6, read-out: RSV Long EC50. The format is cell-based. How it is done: (§2) Duplicate 10-fold serial dilutions of compound in DMEM with 2% HI-FBS, 1× P/S, 2 mM L-Gln were prepared in 96-well tissue culture plates at 60 μL/well. The RSV Long strain (RetroVirox, San Diego), RSV A2 strain (Virapur, San Diego), RSV B1 strain (RetroVirox, San Diego), or RSV strain CH18537 (RetroVirox, San Diego), were diluted in DMEM with 2% HI-FBS, 1× P/S, 2 mM L-Gln and 60 μL/well added to 60 μL compound for a multiplicity of infection (MOI) of 0.002 (Long, A2), 0.003 (B1), or 0.004 (CH18537). Virus only (no drug) and cells only (no virus, no drug) controls were included on each plate. The compound-virus mix was incubated for 1 h at 37° C. and 5% CO2. After 1 h, medium was removed from HEp-2 cells by aspiration and wells washed once with 100 μL/well 1×PBS pH 7.4 (Fisher cat #MT21040CM). The compound-virus mix (100 μL/well) was added to the cells and incubated for 1 h at 37° C. and 5% CO2 prior to addition of 100 μL/well of DMEM with 2% HI-FBS, 1× P/S, 2 mM L-Gln (200 μL final vol) and incubation at 37° C. and 5% CO2. On day 6 post infection, supernatant was aspirated and cells fixed with 100 μL/well ice-cold 80% acetone in 1×PBS for 20 min at 4° C. The acetone was aspirated and plates air-dried for 20 min at room temperature. The plates were washed 3× with 200 μL/well 1×PBS, 0.05% Tween-20 (PBST) and blocked with 200 μL/well 5% non-fat dry milk (Fisher cat #50-195-952) in PBST for 1 h with shaking (500 rpm) on an orbital plate shaker. The blocking solution was discarded and cells incubated with 100 μL/well mouse anti-F protein antibody (MilliporeSigma cat #MAB8599) diluted 1:2,000 in diluent (blocking solution diluted 1:1 in 1×PBS pH 7.4) for 2 h with shaking. Plates were washed 5× with 300 μL/well PBST and incubated with 100 μL/well HRP-conjugated goat anti-mouse IgG antibody (SouthernBiotech cat #1030-05) diluted 1:1,000 in diluent for 1 h with shaking. Plates were washed 5× with 300 μL/well PBST and incubated with 100 μL/well TMB substrate (Fisher cat #BDB555214) for ˜5 min. The reaction was stopped with 100 μL/well 1N H2SO4. Absorbance was read at 450 nm with an EnSpire multimode plate reader (PerkinElmer). The mean A450 for the cells only control was subtracted from all A450 values, and the percent virus neutralisation calculated for each compound concentration, relative to the virus only control.

Series [4] has as its system RSV A2 strain. Nature of the series: RSV microneutralization assay, RSV A2 strain. The conditions noted are these: MOI 0.002, HEp-2 cells, day 6. The format is cell-based. The protocol:
as §2, with “HEp-2 cells (ATCC #CCL-23) were seeded at 5E4/well/200 μL in DMEM (Fisher cat #11965118) supplemented with 10% heat-inactivated (HI) fetal bovine serum (HI-FBS; Fisher cat #10-082-147), 1× penicillin-streptomycin (P/S, 100 μg/mL; Fisher cat #MT30002C), and 1× L-glutamine (L-Gln, 2 mM; Fisher cat #25030-164) in 96-well tissue culture treated plates (Fisher cat #08-772-17) and incubated overnight at 37° C. and 5% CO2. Duplicate” for “Duplicate”

The subject of series [5] is RSV Long. Nature of the series: RSV plaque reduction assay, RSV Long. It is filed as cell-based. The conditions noted are these: human respiratory syncytial virus, HEP-2 cells, 6 days, read-out: EC50 RSV Long MOI 0.0001. How it is done:
(§3) An RSV plaque reduction assay was performed according to the following protocol. On Day 1, HEP-2 cells were seeded in 24-well plates at 5×10E5 cells/well/500 ul. On Day 2, once the cells are at 100% confluency, the cells were infected at a viral dilution of approximately 30 plaques per well in DMEM+2% FBS infection buffer and treated with compound. The medium was aspirated and cells were infected with 90 ul of viral dilution per well. Then, cells were treated with 10 ul of 10× compound resulting in a final concentration of between 1 nM-10 uM of the compound. The cells were incubated for 2 h at room temperature, rocking every 15 minutes. After 2 h, the inoculum/compound mixture is removed. 450 ul of overlay media (1 part Avicel 2.5%; 1 part DMEM+2% FBS) was added to the well and the cells were treated with 50 ul of 10× compound resulting in a final concentration of 1 nM-10 uM of the compound. The cells were incubated for 6 days at 37 deg C.
(§4) For staining and quantification: The infected cell plates were fixed with 100% methanol for 10 to 30 minutes. The plates were washed three times with 5% milk/PBS, 1 mL/well. A primary antibody, goat anti-RSV polyclonal antibody (Chemicon Cat #AB1128), diluted in 5% milk/PBS at 1:1000 was put onto each well. […] The plates were rinsed 3 times with deionized water, air-dried and the number of plaques was counted.
(In general: In a plaque reduction assay, fewer plaques than in the control indicate reduced infectivity or spread.)

The subject of series [6] is RSV B1. Kind of series: RSV plaque reduction assay, RSV B1. The conditions noted are these: human respiratory syncytial virus, HEP-2 cells, 6 days, read-out: EC50 RSV B1 MOI 0.0001. The format is cell-based. How it is done: as §3, §4
The subject of series [7] is RSV. The following applies: prophylactic use; cited from earlier work.
Series [8] relates to RSV B1 strain. Kind of series: RSV microneutralization assay, RSV B1 strain. The conditions noted are these: human respiratory syncytial virus; MOI 0.003, HEp-2 cells, day 6. The format is cell-based. The protocol: (§5) HEp-2 cells (ATCC #CCL-23) were seeded at 5E4/well/200 μL in DMEM (Fisher cat #11965118) supplemented with 10% heat-inactivated (HI) fetal bovine serum (HI-FBS; Fisher cat #10-082-147), 1× penicillin-streptomycin (P/S, 100 μg/mL; Fisher cat #MT30002C), and 1× L-glutamine (L-Gln, 2 mM; Fisher cat #25030-164) in 96-well tissue culture treated plates (Fisher cat #08-772-17) and incubated overnight at 37° C. and 5% CO2. Duplicate 10-fold serial dilutions of compound in DMEM with 2% HI-FBS, 1× P/S, 2 mM L-Gln were prepared in 96-well tissue culture plates at 60 μL/well. The RSV Long strain (RetroVirox, San Diego), RSV A2 strain (Virapur, San Diego), RSV B1 strain (RetroVirox, San Diego), or RSV strain CH18537 (RetroVirox, San Diego), were diluted in DMEM with 2% HI-FBS, 1× P/S, 2 mM L-Gln and 60 μL/well added to 60 μL compound for a multiplicity of infection (MOI) of 0.002 (Long, A2), 0.003 (B1), or 0.004 (CH18537). Virus only (no drug) and cells only (no virus, no drug) controls were included on each plate. The compound-virus mix was incubated for 1 h at 37° C. and 5% CO2. […] Absorbance was read at 450 nm with an EnSpire multimode plate reader (PerkinElmer). The mean A450 for the cells only control was subtracted from all A450 values, and the percent virus neutralisation calculated for each compound concentration, relative to the virus only control.

Series [9] has as its system RSV strain CH18537. Kind of series: RSV microneutralization assay, RSV strain CH18537. The conditions noted are these: human respiratory syncytial virus; MOI 0.004, HEp-2 cells, day 6. It is filed as cell-based. The protocol: as §5
Series [10] deals with HEp-2 cells. Nature of the series: Inherent cytotoxicity run in parallel with the CPE assay (CellTiter-Glo). It is filed as cell-based. The following applies: 4 days post treatment, DMSO, value in %. The protocol:
as §1

Where [11] appears, read: human respiratory syncytial virus.

On to `C#CCOCCOCCOCCOCCN[C@H]1CCN(c2nc3cc(C4CCCCN4C(=O)c4cc(Cl)ccc4NS(C)(=O)=O)nn3cc2C)C1` (some centres unmarked) [Int-7], for which the figures for the half-maximal effective concentration (EC50) in series [1] and in series [3] (setting [11]) were 0.353 nM and 18 nM, respectively. Also, the CC50 at 4 days in series [2] is 10400 nM.
On to `C#CCOCCOCCOCCOCCC(=O)NCCCCn1c(CN2C(=O)C3(CCN(C(=O)OC(C)(C)C)CC3)c3ccncc32)nc2cc(Cl)ccc21` [Int-35], for which the values for the concentration for a half-maximal effect (EC50) in series [3] (setting [11]) and in series [4] (setting [11]) were 0.34 nM and 0.74 nM, respectively.
On to `C#CCOCCOCCOCCOCCOCCCCn1c(CN2C(=O)C3(CCN(C(=O)OC(C)(C)C)CC3)c3ccncc32)nc2cc(Cl)ccc21` [Int-42], for which the concentration for a half-maximal effect (EC50) turned out to be 0.22 nM in [3] (setting [11]), 0.88 nM in [4] (setting [11]), 17 nM in [5] and 13 nM in [6].
As to `NC(=O)c1ncn([C@@H]2O[C@H](CO)[C@@H](O)[C@H]2O)n1` [Ribavirin, reference compound], the EC50 in series [1] was 25800 nM. Also, the CC50 at 4 days in series [2] worked out at 174000 nM.
As to Palivizumab, the EC50 in series [3] amounted to 17 nM; in series [4] it was 21 nM. The “effective at reducing hospitalization rates” value in [7] is listed as 60%.
Turning to `Cc1cn2nc([C@@H]3CCCCN3C(=O)c3cc(Cl)ccc3NS(C)(=O)=O)cc2nc1N1CC[C@H](N)C1` [Presatovir, reference compound], the EC50 in [1] came out at 0.0769 nM; in [3] (setting [11]), 0.0084 nM; in series [4] (setting [11]), 0.014 nM; in series [8] it was 0.82 nM; in series [9], 0.32 nM.
With `C#CCOCCOCCOCCOCCC(=O)N[C@H]1CCN(c2nc3cc([C@@H]4CCCCN4C(=O)c4cc(Cl)ccc4NS(C)(=O)=O)nn3cc2C)C1` [Int-9], the values for the EC50 in series [1] and in [3] (setting [11]) were 272 nM and 1500 nM, respectively. The same compound gave a CC50 at 4 days in series [2] of 49700 nM.
In the case of `C[S+](C)[O-]` [DMSO], the CC50 in [10] was determined as 1.17%.
`C#CCOCCOCCOCCOCCn1c(CN2C(=O)C3(CCN(C(=O)OC(C)(C)C)CC3)c3ccncc32)nc2cc(Cl)ccc21` [Int-41]: the EC50 in series [3] (setting [11]) is 14 nM; in series [4] (setting [11]), 15 nM; in [8], 3.6 nM.

One may read the EC50 as the concentration that produces a half-maximal response.
